Reference: patent US20220370440A1 (Lead Discovery Center GmbH, priority 2018, published 2022)

What was measured:
[1] = molecular target: Her2 Exon 20 INSYVMA Ba/F3 (Homo sapiens, UniProt P04626, DUP772-775, cells depend on it); test: Her2 Exon 20 INSYVMA Ba/F3 CellTiter-Glo; format: cell-based; conditions: CellTiter-Glo, 72 h, read-out: Her2 Exon 20 INSYVMA Ba/F3 CTG IC50
Procedure, shortened: (§1)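 Ba/F3 cells were seeded, left 24 h at 37 °C/5% CO2, then exposed to compound dilutions in DMSO for 72 h. Viability was read as ATP luminescence (CellTiter-Glo) and IC50 fitted from dose–response curves; DMSO and 10 μM staurosporine defined the controls, and plates needed Z′ ≥0.5.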

[2] = Metabolic stability in mouse liver microsomes without cofactor NADPH; format: in vitro ADME; conditions: 3 μM test compound, mouse liver microsomes, without NADPH, 50 min, 37° C., LC-MS/MS
Description: There are two major groups of enzyme reactions catalyzed by drug metabolizing enzymes, the so called Phase I and Phase II reactions. The basic processes in phase I reactions are oxidation, reduction and/or hydrolysis mostly catalyzed by the cytochrome P450 (CYP) family of enzymes.
The following procedures describe the determination of the in vitro Phase I metabolic stability of test compounds using liver microsomes by measuring compound depletion over time. Test compound at the concentration of 3 μM was incubated with the liver microsomes from the mouse species and the experiment was performed without NADPH. The depletion of the test compounds was measured over time up to 50 minutes at 37° C. by LC-MS/MS. Different compounds were tested under these conditions for microsomal stability (see Table 5).

EGFR wt = EGFR wt (Homo sapiens, UniProt P00533); test: EGFR wt Lance assay; format: biochemical
Chain of EGFR wt (P00533 25-1210): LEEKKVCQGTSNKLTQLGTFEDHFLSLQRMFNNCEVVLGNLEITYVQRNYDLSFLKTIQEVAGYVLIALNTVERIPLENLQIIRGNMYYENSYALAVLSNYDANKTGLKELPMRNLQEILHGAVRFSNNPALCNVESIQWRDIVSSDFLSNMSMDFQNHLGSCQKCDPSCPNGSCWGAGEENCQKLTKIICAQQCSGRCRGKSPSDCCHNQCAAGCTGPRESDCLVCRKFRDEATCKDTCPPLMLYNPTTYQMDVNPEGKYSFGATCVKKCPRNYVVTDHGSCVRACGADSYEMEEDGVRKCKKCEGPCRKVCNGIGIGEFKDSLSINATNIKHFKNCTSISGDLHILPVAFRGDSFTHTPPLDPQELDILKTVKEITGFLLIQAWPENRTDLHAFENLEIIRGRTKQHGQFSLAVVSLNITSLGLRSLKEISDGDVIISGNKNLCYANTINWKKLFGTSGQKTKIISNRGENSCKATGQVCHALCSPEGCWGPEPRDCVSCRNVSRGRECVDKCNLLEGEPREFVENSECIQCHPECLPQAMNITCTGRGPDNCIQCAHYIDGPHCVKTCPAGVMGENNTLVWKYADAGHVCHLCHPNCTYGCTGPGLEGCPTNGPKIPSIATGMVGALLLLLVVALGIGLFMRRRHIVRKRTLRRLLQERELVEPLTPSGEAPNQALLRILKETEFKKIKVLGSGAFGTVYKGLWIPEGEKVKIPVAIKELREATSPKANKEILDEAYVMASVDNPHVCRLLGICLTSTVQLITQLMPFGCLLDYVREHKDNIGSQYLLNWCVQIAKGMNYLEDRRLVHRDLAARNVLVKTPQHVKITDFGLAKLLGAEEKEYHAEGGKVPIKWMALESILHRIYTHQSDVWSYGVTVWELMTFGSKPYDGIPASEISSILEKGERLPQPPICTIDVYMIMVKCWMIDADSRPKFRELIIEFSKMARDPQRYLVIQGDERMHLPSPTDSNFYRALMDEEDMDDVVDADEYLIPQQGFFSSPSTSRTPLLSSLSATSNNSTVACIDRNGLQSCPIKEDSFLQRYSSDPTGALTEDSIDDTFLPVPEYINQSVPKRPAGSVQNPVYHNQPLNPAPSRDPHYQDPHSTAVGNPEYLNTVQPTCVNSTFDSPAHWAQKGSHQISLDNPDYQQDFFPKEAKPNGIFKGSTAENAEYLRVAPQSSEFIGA
Experimental: (§2) Inhibition is indicated as […] [nM] (“−”=not measured). Compounds having an activity designated as “A” provided an IC50≤100 nM; compounds having an activity designated as “B” provided an 100 nM<IC50≤500 nM; compounds having an activity designated as “C” provided an 500 nM<IC50≤1000 nM; compounds having an activity designated as “D” provided an 1000 nM<IC50≤100000 nM; and compounds having an activity designated as “E” provided an IC50>10000 nM.

H1975 = H1975 CellTiter-Glo; format: cell-based; conditions: Homo sapiens, NCI-H1975; 72 h compound incubation; read-out: H1975 CTG IC50
Procedure, shortened: (§3)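 Cells were seeded, left 24 h at 37° C. and 5% CO2, then exposed to compounds in DMSO at different concentrations for a further 72 h. Viability was read as ATP-dependent luminescence (CellTiter-Glo), and IC50 values were obtained from dose-response fits against DMSO and 10 μM Staurosporine controls.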

[3] = molecular target: EGFR Exon 20 INSNPH Ba/F3 (Homo sapiens, UniProt P00533, DUP771-773, cells depend on it); test: EGFR Exon 20 INSNPH Ba/F3 CellTiter-Glo; format: cell-based; conditions: CellTiter-Glo, 72 h, read-out: EGFR Exon 20 INSNPH Ba/F3 CTG IC50
Chain of EGFR Exon 20 INSNPH Ba/F3 (P00533 with tags, fused parts or gaps DUP771-773): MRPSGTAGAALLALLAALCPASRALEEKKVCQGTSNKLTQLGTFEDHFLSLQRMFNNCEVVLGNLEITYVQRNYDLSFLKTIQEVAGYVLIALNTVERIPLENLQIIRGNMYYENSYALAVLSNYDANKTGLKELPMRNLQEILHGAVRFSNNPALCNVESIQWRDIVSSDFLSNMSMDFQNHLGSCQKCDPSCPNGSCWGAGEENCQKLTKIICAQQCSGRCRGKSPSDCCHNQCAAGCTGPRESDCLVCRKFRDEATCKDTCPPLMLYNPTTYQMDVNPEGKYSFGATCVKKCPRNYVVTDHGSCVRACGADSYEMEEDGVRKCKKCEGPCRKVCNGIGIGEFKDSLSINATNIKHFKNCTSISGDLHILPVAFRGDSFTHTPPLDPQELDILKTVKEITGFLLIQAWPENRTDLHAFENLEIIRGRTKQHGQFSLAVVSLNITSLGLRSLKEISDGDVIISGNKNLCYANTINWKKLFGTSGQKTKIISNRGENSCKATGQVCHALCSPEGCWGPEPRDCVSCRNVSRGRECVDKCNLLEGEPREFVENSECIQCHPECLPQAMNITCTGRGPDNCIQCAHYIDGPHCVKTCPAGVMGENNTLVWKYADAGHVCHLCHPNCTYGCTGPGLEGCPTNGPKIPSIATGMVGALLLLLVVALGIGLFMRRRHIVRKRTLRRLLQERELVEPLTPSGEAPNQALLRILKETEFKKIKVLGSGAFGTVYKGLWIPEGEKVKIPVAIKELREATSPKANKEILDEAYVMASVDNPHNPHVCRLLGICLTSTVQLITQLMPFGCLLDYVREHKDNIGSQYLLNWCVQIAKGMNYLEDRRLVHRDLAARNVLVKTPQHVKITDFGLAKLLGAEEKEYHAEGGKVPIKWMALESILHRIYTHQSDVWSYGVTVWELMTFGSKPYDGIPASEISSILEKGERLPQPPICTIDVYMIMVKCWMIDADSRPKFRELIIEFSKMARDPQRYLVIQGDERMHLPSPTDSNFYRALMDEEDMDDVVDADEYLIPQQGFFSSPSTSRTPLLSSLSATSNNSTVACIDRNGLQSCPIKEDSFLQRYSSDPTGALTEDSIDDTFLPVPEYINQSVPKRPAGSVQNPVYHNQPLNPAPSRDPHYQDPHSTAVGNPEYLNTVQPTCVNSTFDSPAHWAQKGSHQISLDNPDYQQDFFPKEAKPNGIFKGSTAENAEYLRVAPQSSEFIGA
Procedure, shortened: as §1

EGFR T790ML858R = EGFR T790ML858R (Homo sapiens, UniProt P00533, L858R/T790M); test: EGFR T790ML858R Lance assay; format: biochemical
Chain of EGFR T790ML858R (P00533 25-1210 T790M/L858R): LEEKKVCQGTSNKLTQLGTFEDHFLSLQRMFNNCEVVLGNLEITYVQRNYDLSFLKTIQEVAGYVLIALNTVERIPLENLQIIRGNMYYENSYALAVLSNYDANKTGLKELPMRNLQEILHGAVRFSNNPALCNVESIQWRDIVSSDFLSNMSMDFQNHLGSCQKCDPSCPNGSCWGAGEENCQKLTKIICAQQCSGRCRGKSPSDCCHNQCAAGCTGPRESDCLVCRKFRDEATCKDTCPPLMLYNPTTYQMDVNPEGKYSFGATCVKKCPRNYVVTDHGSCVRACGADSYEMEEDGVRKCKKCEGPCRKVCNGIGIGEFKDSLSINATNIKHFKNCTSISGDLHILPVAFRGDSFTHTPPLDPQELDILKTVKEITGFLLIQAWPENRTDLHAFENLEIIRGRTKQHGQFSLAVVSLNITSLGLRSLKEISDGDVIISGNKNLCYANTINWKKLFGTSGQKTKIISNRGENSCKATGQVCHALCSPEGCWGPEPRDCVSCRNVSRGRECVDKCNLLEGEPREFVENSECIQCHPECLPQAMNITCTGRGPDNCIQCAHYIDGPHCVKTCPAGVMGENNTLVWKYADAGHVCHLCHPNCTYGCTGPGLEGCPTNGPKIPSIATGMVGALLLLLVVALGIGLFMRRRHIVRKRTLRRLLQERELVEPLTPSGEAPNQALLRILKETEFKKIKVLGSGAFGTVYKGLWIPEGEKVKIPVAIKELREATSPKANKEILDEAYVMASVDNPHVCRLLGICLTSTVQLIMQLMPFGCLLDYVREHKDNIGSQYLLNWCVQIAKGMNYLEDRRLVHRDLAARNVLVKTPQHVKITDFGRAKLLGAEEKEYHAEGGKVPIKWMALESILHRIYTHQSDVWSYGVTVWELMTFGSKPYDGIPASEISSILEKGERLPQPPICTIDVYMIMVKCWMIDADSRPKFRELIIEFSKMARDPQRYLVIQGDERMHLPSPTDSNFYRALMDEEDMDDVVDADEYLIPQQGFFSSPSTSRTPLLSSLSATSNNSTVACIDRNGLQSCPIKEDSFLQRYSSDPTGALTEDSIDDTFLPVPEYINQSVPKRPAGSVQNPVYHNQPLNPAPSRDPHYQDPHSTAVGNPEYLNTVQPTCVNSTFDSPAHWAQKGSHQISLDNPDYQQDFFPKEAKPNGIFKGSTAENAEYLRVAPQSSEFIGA
Experimental: as §2

A431 = A431 CellTiter-Glo; format: cell-based; conditions: Homo sapiens, A-431; 72 h compound incubation; read-out: A431 CTG IC50
Procedure, shortened: as §3

HER2 INS YVMA = molecular target: T1, HER2 INS YVMA (Homo sapiens, UniProt P04626, INS775YVMA); test: Lance Kinase Activity Assay, HER2 INS YVMA (Her2 Exon 20 INSYVMA Lance); format: biochemical; conditions: biochemical Lance assay
T1 construct: purchased DPF
T1 sequence (P04626 with tags, fused parts or gaps INS775YVMA): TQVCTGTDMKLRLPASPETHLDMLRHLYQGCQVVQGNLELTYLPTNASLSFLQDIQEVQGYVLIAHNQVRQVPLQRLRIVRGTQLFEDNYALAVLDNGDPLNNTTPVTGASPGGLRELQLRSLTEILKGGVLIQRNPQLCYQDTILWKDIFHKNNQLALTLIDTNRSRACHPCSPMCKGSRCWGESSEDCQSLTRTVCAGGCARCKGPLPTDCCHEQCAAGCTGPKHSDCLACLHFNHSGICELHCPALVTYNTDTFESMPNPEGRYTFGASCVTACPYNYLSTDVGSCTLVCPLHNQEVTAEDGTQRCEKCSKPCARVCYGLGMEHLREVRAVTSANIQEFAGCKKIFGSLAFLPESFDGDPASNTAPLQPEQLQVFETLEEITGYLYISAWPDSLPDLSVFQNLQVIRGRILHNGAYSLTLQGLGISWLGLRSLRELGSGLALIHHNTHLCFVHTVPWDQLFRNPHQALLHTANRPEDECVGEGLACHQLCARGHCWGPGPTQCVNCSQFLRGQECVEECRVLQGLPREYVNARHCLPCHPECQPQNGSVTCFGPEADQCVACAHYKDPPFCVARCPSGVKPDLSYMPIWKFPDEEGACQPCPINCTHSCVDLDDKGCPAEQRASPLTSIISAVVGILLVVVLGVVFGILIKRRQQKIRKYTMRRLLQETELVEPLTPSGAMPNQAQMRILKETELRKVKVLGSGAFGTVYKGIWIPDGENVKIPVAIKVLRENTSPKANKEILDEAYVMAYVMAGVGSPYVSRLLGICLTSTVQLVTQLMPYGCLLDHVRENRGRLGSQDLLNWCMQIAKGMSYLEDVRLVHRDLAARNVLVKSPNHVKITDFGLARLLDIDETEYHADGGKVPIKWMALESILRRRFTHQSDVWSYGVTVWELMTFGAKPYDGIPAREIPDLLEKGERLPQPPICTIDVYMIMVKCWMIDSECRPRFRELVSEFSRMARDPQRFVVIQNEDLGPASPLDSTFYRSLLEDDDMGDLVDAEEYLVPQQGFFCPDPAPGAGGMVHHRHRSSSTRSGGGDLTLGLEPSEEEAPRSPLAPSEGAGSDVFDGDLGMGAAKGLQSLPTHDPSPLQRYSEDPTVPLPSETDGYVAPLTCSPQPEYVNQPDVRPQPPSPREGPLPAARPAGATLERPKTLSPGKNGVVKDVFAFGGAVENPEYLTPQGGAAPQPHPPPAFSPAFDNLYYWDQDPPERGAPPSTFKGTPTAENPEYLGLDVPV
Procedure, shortened: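 Kinase phosphorylates a ULight-labelled peptide substrate; Eu anti-phospho antibody gives TR-FRET (ex 340 nm, em 665/615 nm). Compounds in 1:3 serial dilution over 8 steps, reaction started with ATP, 1 h at room temperature, stopped with EDTA-containing detection mix for 1 h. IC50 from sigmoidal dose-response curves.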

Structure (SMILES) | GI50 [1] | Stability in presence of mouse liver microsomes without cofactor NADPH [% remaining after 50 min] [2] | IC50 (EGFR wt) | IC50 (H1975) | GI50 [3] | IC50 (EGFR T790ML858R) | IC50 (A431) | IC50 (HER2 INS YVMA)
C=CC(=O)Nc1cc(-c2c(-c3ccc(N4CCN(C)CC4)cc3)[nH]c3ncc(C(=O)OC)cc23)ccc1C [Example 134, Methyl 3-(3-acrylamido-4-methylphenyl)-2-(4-(4-methylpiperazin-1-yl)phenyl)-1H-pyrrolo[2,3-b]pyridine-5-carboxylate 2,2,2-trifluoroacetate] | 100 to 500 nM | >99 % remaining after 50 min | ≤ 100 nM | 100 to 500 nM | 100 to 500 nM | ≤ 100 nM | 1000 to 100000 nM | ≤ 100 nM
C=CC(=O)Nc1cc(-c2c(-c3ccc(N4CCN(C)CC4)nc3)[nH]c3nccc(Cl)c23)ccc1C [Example 19, N-(5-(4-chloro-2-(6-(4-methylpiperazin-1-yl)pyridin-3-yl)-1H-pyrrolo[2,3-b]pyridin-3-yl)-2-methylphenyl)acrylamide] | 500 to 1000 nM | >99 % remaining after 50 min | ≤ 100 nM | 100 to 500 nM | 500 to 1000 nM | ≤ 100 nM | 1000 to 100000 nM | 100 to 500 nM
C=CC(=O)Nc1cc(-c2c(-c3ccc(C4CCN(C)CC4)cc3)[nH]c3ncc(C(=O)OC(C)C)cc23)cc(F)c1C [Example 179, isopropyl 3-(3-acrylamido-5-fluoro-4-methylphenyl)-2-(4-(1-methylpiperidin-4-yl)phenyl)-1H-pyrrolo[2,3-b]pyridine-5-carboxylate] | 100 to 500 nM | >99 % remaining after 50 min | ≤ 100 nM | 100 to 500 nM | 100 to 500 nM | ≤ 100 nM | 1000 to 100000 nM | ≤ 100 nM
C=CC(=O)N1CCc2ccc(-c3c(-c4ccc(OCCCN(C)C)cc4)[nH]c4nccc(Cl)c34)cc21 [Example 71, 1-(6-(4-chloro-2-(4-(3-(dimethylamino)propoxy)phenyl)-1H-pyrrolo[2,3-b]pyridin-3-yl)indolin-1-yl)prop-2-en-1-one] | 100 to 500 nM | >99 % remaining after 50 min | ≤ 100 nM | 100 to 500 nM | 500 to 1000 nM | ≤ 100 nM | 500 to 1000 nM | ≤ 100 nM
C=CC(=O)N1CCc2ccc(-c3c(-c4ccc(N5CCN(C)CC5)cc4)[nH]c4nccc(OCC)c34)cc21 [Example 104, 1-(6-(4-ethoxy-2-(4-(4-methylpiperazin-1-yl)phenyl)-1H-pyrrolo[2,3-b]pyridin-3-yl)indolin-1-yl)prop-2-en-1-one 2,2,2-trifluoroacetate] | 100 to 500 nM | 89 % remaining after 50 min | ≤ 100 nM | ≤ 100 nM | 100 to 500 nM | ≤ 100 nM | 500 to 1000 nM | ≤ 100 nM
C=CC(=O)N1CCc2ccc(-c3c(-c4cccc(OCCN5CCCC5)c4)[nH]c4nccc(Cl)c34)cc21 [Example 64, 1-(6-(4-chloro-2-(3-(2-(pyrrolidin-1-yl)ethoxy)phenyl)-1H-pyrrolo[2,3-b]pyridin-3-yl)indolin-1-yl)prop-2-en-1-one] | 100 to 500 nM | >99 % remaining after 50 min | ≤ 100 nM | ≤ 100 nM | 100 to 500 nM | ≤ 100 nM | 500 to 1000 nM | ≤ 100 nM
